Measurements taken from patent US8986733B2, “Materials and methods for nerve repair” (University of Florida Research Foundation, Inc., priority 2001, dated 2015).

Legend:
CSPG = CSPG neoepitope (Ab1918) immunolabeling of acellular rat sciatic nerve segments treated en bloc; assay type: biochemical; conditions: en bloc treatment 16 h
Source text: Preparation of acellular nerve grafts treated with chondroitinase. Adult (180-200 g) female SPRAGUE DAWLEY rats (HARLAN, Indianapolis, Ind.) were used as nerve donors and recipient hosts. Donor rats were anesthetized with halothane and decapitated. Sciatic nerves were exposed through a gluteal muscle-splitting incision and isolated free of underlying fascia. A 15-mm nerve segment was excised rostral to the bifurcation into common peroneal and tibial nerves. The segments were rinsed with cold sterile Ringer's solution, stabilized by pinning the ends to a thin plastic support, and transferred to a cryogenic vial. The vials were submerged in liquid nitrogen for 2 minutes and then transferred to a 37° C. water bath for 2 minutes. This freeze/thaw cycle was repeated, yielding acellular nerve grafts that were then stored in liquid nitrogen. On the day before grafting, the nerve grafts were warmed to room temperature and incubated in 100 μl phosphate buffered saline pH 7.4 (PBS) containing 2 units/ml chondroitinase ABC (SIGMA, St. Louis, Mo.) or in PBS (vehicle) only for 16 hours at 37° C. The grafts were rinsed twice with Ringer's and kept on ice prior to use. […]
Immunocytochemistry. Axonal regeneration was assessed by GAP-43 immunofluorescence and digital image analysis. […]

chick DRG neurons = experiment: Cryoculture assay using human nerve segments; assay type: cell-based; conditions: DRG neurons 24 h on treated human nerve sections
Experimental: Human nerves were treated with chondroitinase and then assayed for neurite-promoting activity. Dissociated chick DRG neurons were grown on the sections for 24 h and neurite lengths were scored. Results are expressed as means (−SEM). Statistical significance (P<0.001) comparing vehicle-treated and chondroitinase-treated conditions was found using Student's t test.
Cryoculture bioassay. Cryoculture is a neurite outgrowth assay in which neurons are cultured directly on fresh/frozen nerve sections and was performed as described previously (Ferguson T A et al. [2000] Mol Cell Neurosci, 16:157-167). Briefly, chondroitinase- and vehicle-treated nerve segments were sectioned at 20 μm, mounted on sterile, aminopropyltriethoxysilane (APTS)-coated coverslips and stored at −20° C. until used. Where indicated, sections were treated with chondroitinase ABC (0.1 unit/ml) or vehicle (50 mM Tris-HCl, pH 8.0), containing 50 mM NaCl) for 2 h at 37° C. […] Neurite lengths were measured directly using IMAGE-PRO PLUS software (MEDIA CYBERNETICS, Silver Springs, Md.). At least 250 neurons with neurites greater than one cell body (˜15 μm) were scored for each condition in each experiment. […]

chondroitinase ABC
CSPG degradation (Ab1918 neoepitope immunostaining) (CSPG): thoroughly degraded CSPG side-chains
growth-promoting properties of human nerves (neurite length) (chick DRG neurons): increased
